Laboratory results from PubChem BioAssay (NCI).
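Test compounds were applied to cells in 96-well plates for 48 hours at 5 doses. Definition used: TGI = concentration required for complete inhibition of growth.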

Assays:
Assay in all cases: inhibition of tumour cell growth, NCI panel, 48 h
[1] = system: UACC-257 melanoma
[2] = system: SN12C renal
[3] = system: HOP-92 NSCLC
[4] = system: SK-MEL-2 melanoma
[5] = system: OVCAR-8 ovarian
[6] = system: HT29 colon
[7] = system: SNB-75 CNS
[8] = system: NCI-H460 lung
[9] = system: COLO 205 colon
[10] = system: LOX IMVI melanoma
[11] = system: CCRF-CEM leukemia
[12] = system: DMS 273 small cell lung
[13] = system: HCT-116 colon
[14] = system: ACHN renal
[15] = system: UACC-62 melanoma
[16] = system: UO-31 renal
[17] = system: DLD-1 colon
[18] = system: XF 498 CNS
[19] = system: HL-60(TB) leukemia
[20] = system: NCI-H226 lung
[21] = system: TK-10 renal
[22] = system: CAKI-1 renal
[23] = system: SK-MEL-5 melanoma
[24] = system: IGROV1 ovarian
[25] = system: HCC-2998 colon
[26] = system: KM12 colon
[27] = system: A498 renal
[28] = system: EKVX NSCLC
[29] = system: NCI-H23 lung
[30] = system: SK-MEL-28 melanoma
[31] = system: SR leukemia
[32] = system: HOP-18 NSCLC
[33] = system: RPMI-8226 leukemia
[34] = system: HCT-15 colon
[35] = system: SF-539 CNS
[36] = system: M14 melanoma
[37] = system: M19-MEL melanoma
[38] = system: KM20L2 colon
[39] = system: RXF 393 renal
[40] = system: SNB-78 CNS
[41] = system: NCI-H522 lung
[42] = system: DMS 114 small cell lung
[43] = system: SW-620 colon
[44] = system: U251 CNS
[45] = system: A549 NSCLC
[46] = system: MALME-3M melanoma
[47] = system: OVCAR-4 ovarian
[48] = system: HOP-62 NSCLC
[49] = system: 786-0 renal
[50] = system: OVCAR-3 ovarian
[51] = system: OVCAR-5 ovarian
[52] = system: SF-295 CNS
[53] = system: SNB-19 CNS
[54] = system: LXFL 529 NSCLC
[55] = system: SF-268 CNS
[56] = system: K-562 leukemia
[57] = system: MOLT-4 leukemia
[58] = system: SK-OV-3 ovarian
[59] = system: RXF-631 renal

Clc1ccc(-c2c(C3=NCCN3)nnn2-c2ccccc2)cc1
TGI [1]: > 100 µM | TGI [2]: > 100 µM | TGI [3]: > 100 µM | TGI [4]: > 100 µM | TGI [5]: > 100 µM | TGI [6]: > 100 µM | TGI [7]: > 100 µM | TGI [8]: > 100 µM | TGI [9]: > 100 µM | TGI [10]: > 100 µM | TGI [11]: > 100 µM | TGI [12]: > 100 µM | TGI [13]: > 100 µM | TGI [14]: > 100 µM | TGI [15]: > 100 µM | TGI [16]: > 100 µM | TGI [17]: > 100 µM | TGI [18]: > 100 µM | TGI [19]: > 100 µM | TGI [20]: > 100 µM | TGI [21]: > 100 µM | TGI [22]: > 100 µM | TGI [23]: > 100 µM | TGI [24]: > 100 µM | TGI [25]: > 100 µM | TGI [26]: > 100 µM | TGI [27]: > 100 µM | TGI [28]: > 100 µM | TGI [29]: > 100 µM | TGI [30]: > 100 µM | TGI [31]: > 100 µM | TGI [32]: > 100 µM | TGI [33]: > 100 µM | TGI [34]: > 100 µM | TGI [35]: > 100 µM | TGI [36]: > 100 µM | TGI [37]: > 100 µM | TGI [38]: > 100 µM | TGI [39]: > 100 µM | TGI [40]: > 100 µM | TGI [41]: > 100 µM | TGI [42]: > 100 µM | TGI [43]: > 100 µM | TGI [44]: > 100 µM | TGI [45]: > 100 µM | TGI [46]: > 100 µM | TGI [47]: > 100 µM | TGI [48]: > 100 µM | TGI [49]: > 100 µM | TGI [50]: > 100 µM | TGI [51]: > 100 µM | TGI [52]: > 100 µM | TGI [53]: > 100 µM | TGI [54]: > 100 µM | TGI [55]: > 100 µM | TGI [56]: > 100 µM | TGI [57]: > 100 µM | TGI [58]: > 100 µM

COc1cc(C2c3cc4c(cc3[C@@H](N(C)C)[C@H]3COC(=O)C23)OCO4)cc(OC)c1O (stereo not given in full)
TGI [1]: > 100 µM | TGI [2]: > 100 µM | TGI [3]: 68.1 µM | TGI [4]: > 100 µM | TGI [5]: 80.1 µM | TGI [6]: > 100 µM | TGI [7]: > 100 µM | TGI [8]: > 100 µM | TGI [9]: > 100 µM | TGI [10]: > 100 µM | TGI [11]: > 100 µM | TGI [59]: > 100 µM | TGI [12]: > 100 µM | TGI [13]: > 100 µM | TGI [14]: > 100 µM | TGI [15]: > 100 µM | TGI [16]: > 100 µM | TGI [17]: > 100 µM | TGI [18]: > 100 µM | TGI [19]: > 100 µM | TGI [20]: > 100 µM | TGI [21]: > 100 µM | TGI [22]: 99 µM | TGI [23]: 86.5 µM | TGI [24]: > 100 µM | TGI [25]: > 100 µM | TGI [26]: > 100 µM | TGI [27]: 56 µM | TGI [28]: > 100 µM | TGI [29]: > 100 µM | TGI [30]: > 100 µM | TGI [31]: > 100 µM | TGI [33]: > 100 µM | TGI [34]: > 100 µM | TGI [35]: 53.8 µM | TGI [36]: > 100 µM | TGI [38]: 54.1 µM | TGI [39]: > 100 µM | TGI [41]: 18.8 µM | TGI [43]: > 100 µM | TGI [44]: > 100 µM | TGI [45]: > 100 µM | TGI [46]: > 100 µM | TGI [47]: > 100 µM | TGI [48]: > 100 µM | TGI [49]: > 100 µM | TGI [51]: > 100 µM | TGI [54]: > 100 µM | TGI [55]: > 100 µM | TGI [56]: > 100 µM | TGI [57]: > 100 µM | TGI [58]: > 100 µM

CCCCCCCCCCCCCC(=O)NCC(OCC)OCC
TGI [1]: > 100 µM | TGI [2]: > 100 µM | TGI [3]: > 100 µM | TGI [4]: > 100 µM | TGI [5]: > 100 µM | TGI [6]: > 100 µM | TGI [7]: > 100 µM | TGI [8]: > 100 µM | TGI [9]: > 100 µM | TGI [10]: > 100 µM | TGI [11]: > 100 µM | TGI [12]: > 100 µM | TGI [13]: > 100 µM | TGI [14]: > 100 µM | TGI [15]: > 100 µM | TGI [16]: > 100 µM | TGI [17]: > 100 µM | TGI [18]: > 100 µM | TGI [19]: > 100 µM | TGI [20]: > 100 µM | TGI [21]: > 100 µM | TGI [23]: > 100 µM | TGI [24]: > 100 µM | TGI [25]: > 100 µM | TGI [26]: > 100 µM | TGI [27]: > 100 µM | TGI [28]: > 100 µM | TGI [29]: > 100 µM | TGI [30]: > 100 µM | TGI [32]: > 100 µM | TGI [34]: > 100 µM | TGI [35]: > 100 µM | TGI [36]: > 100 µM | TGI [37]: > 100 µM | TGI [38]: > 100 µM | TGI [39]: > 100 µM | TGI [40]: > 100 µM | TGI [41]: > 100 µM | TGI [42]: > 100 µM | TGI [43]: > 100 µM | TGI [44]: > 100 µM | TGI [45]: > 100 µM | TGI [46]: > 100 µM | TGI [47]: > 100 µM | TGI [48]: > 100 µM | TGI [49]: > 100 µM | TGI [50]: > 100 µM | TGI [51]: > 100 µM | TGI [52]: > 100 µM | TGI [53]: > 100 µM | TGI [54]: > 100 µM | TGI [55]: > 100 µM | TGI [58]: > 100 µM

COc1ccc(N2C(=O)C3c4[nH]c5ccccc5c4C4CCCCCCC4C3C2=O)cc1 (stereo not given)
TGI [1]: > 100 µM | TGI [2]: 14.9 µM | TGI [3]: 33.4 µM | TGI [4]: > 69.8 µM | TGI [5]: 13 µM | TGI [6]: > 100 µM | TGI [7]: 27.8 µM | TGI [8]: 27.5 µM | TGI [9]: > 48.6 µM | TGI [10]: 20.8 µM | TGI [11]: 21.5 µM | TGI [12]: 18.6 µM | TGI [13]: 15.3 µM | TGI [14]: 18.7 µM | TGI [15]: 39.2 µM | TGI [16]: 44.1 µM | TGI [17]: > 43.4 µM | TGI [18]: 25.7 µM | TGI [19]: 74 µM | TGI [20]: 31.6 µM | TGI [21]: 40.4 µM | TGI [22]: 39.5 µM | TGI [23]: 61.9 µM | TGI [24]: 59.1 µM | TGI [25]: > 100 µM | TGI [26]: > 100 µM | TGI [27]: 52.3 µM | TGI [28]: 41.4 µM | TGI [29]: 31.2 µM | TGI [30]: 42 µM | TGI [31]: > 21.3 µM | TGI [32]: 3.2 µM | TGI [33]: > 100 µM | TGI [34]: 27 µM | TGI [35]: 21.5 µM | TGI [36]: 37.4 µM | TGI [37]: > 80.3 µM | TGI [38]: > 100 µM | TGI [40]: > 100 µM | TGI [41]: 36.5 µM | TGI [42]: 28 µM | TGI [43]: 34.1 µM | TGI [44]: 16.5 µM | TGI [45]: 22.8 µM | TGI [46]: 41.4 µM | TGI [47]: 33.2 µM | TGI [48]: 26 µM | TGI [49]: 8.29 µM | TGI [50]: 16.8 µM | TGI [51]: > 100 µM | TGI [52]: 26 µM | TGI [53]: 28.1 µM | TGI [54]: 17.1 µM | TGI [55]: 31.3 µM | TGI [56]: > 75.2 µM | TGI [57]: 37.9 µM | TGI [58]: 33.2 µM
